Values quoted from earlier work in PMC6311893, “Computational prediction of plasma protein binding of cyclic peptides from small molecule experimental data using sparse modeling techniques” (BMC Bioinformatics, 2018).

System: plasma protein
Conditions: cited from earlier work

| Compound | PPB (fb) |
| --- | --- |
| COc1ccc(/C=C\c2cc(OC)c(OC)c(OC)c2)cc1OP(=O)(O)O [Combretastatin A4 phosphate] | 0.77 |

Same assay, conditions: fraction bound to plasma protein; small molecule dataset, sheet 1-SM (Set Dte = test, Dtr = training); ref Ingle et al.; cited from earlier work

| Compound | PPB (fb) |
| --- | --- |
| CC(C)Cc1ccc(C(C)C(=O)NC(C)C(=O)O)cc1 (centres unmarked) [JMC_09] | 0.96 |
| COc1ccccc1OCCNCC(O)c1ccc(C)c(S(N)(=O)=O)c1 (centres unmarked) [amosulalol] | 0.98 |
| CNCCc1ccccn1 [betahistine] | 0.03 |
| NCCCC(N)(C(=O)O)C(F)F (centres unmarked) [eflornithine] | 0 |
| Cn1cc[nH]c1=S [thiamazole] | 0 |
| O=C1CCc2cc(OCCCCc3nnnn3C3CCCCC3)ccc2N1 [cilostazol] | 0.96 |
| CC1(C)SC2C(NC=O)C(=O)N2C1C(=O)O (centres unmarked) [penicillin1] | 0.18 |
| C=CCN1C[C@H](C(=O)N(CCCN(C)C)C(=O)NCC)C[C@@H]2c3cccc4[nH]cc(c34)C[C@H]21 [cabergoline] | 0.41 |
| CC(NC(C)(C)C)C(=O)c1cccc(Cl)c1 (centres unmarked) [bupropion] | 0.75 |
| OC[C@H]1OC(O)[C@H](O)[C@@H](O)[C@@H]1O (some centres unmarked) [dextrose] | 0.3 |
| CCC(C)(C)NCC(O)COc1ccccc1C(=O)CCc1ccccc1 (centres unmarked) [Diprafenone] | 0.98 |
| Cc1cccc(C)c1OCC(=O)N[C@@H](Cc1ccccc1)[C@@H](O)C[C@H](Cc1ccccc1)NC(=O)[C@H](C(C)C)N1CCCNC1=O [lopinavir] | 0.99 |

Same assay, conditions: fraction bound to plasma protein; small molecule dataset, sheet 1-SM, Set Dtr; ref Ingle et al.; cited from earlier work

| Compound | PPB (fb) |
| --- | --- |
| O=c1c(O)c(-c2ccc(O)c(O)c2)oc2cc(O)cc(O)c12 [Quercetin] | 0.99 |
| CC(=O)OCC1=C(C(=O)O)N2C(=O)[C@@H](NC(=O)CSc3ccncc3)[C@H]2SC1 [Cephapirin] | 0.53 |
| CCN(CC)CCNC(=O)c1ccc(NC(C)=O)cc1 [Acecainide (N-acetylprocainamide)] | 0.1 |
| CC(C)n1c(/C=C/C(O)CC(O)CC(=O)O)c(-c2ccc(F)cc2)c2ccccc21 (centres unmarked) [Fluvastatin] | 0.99 |
| CC1(C)S[C@@H]2[C@H](NC(=O)[C@H](NC(=O)N3CCN(S(C)(=O)=O)C3=O)c3ccccc3)C(=O)N2[C@H]1C(=O)O [Mezlocillin] | 0.31 |
| CC1(C)S[C@@H]2[C@H](NC(=O)Cc3ccccc3)C(=O)N2[C@H]1C(=O)O [Penicillin G] | 0.62 |
| OC(CCN1CCCCC1)(c1ccccc1)C1CC2C=CC1C2 (centres unmarked) [Biperiden] | 0.93 |
| Nc1ccn([C@@H]2O[C@H](CO)[C@@H](O)C2(F)F)c(=O)n1 [Gemcitabine] | 0.01 |
| CC1(C)O[C@@H]2[C@@H](CO[C@@]3(COS(N)(=O)=O)OC(C)(C)O[C@@H]23)O1 [topiramate] | 0.15 |
| C[C@@H](O)[C@H]1C(=O)N2C(C(=O)O)=C(S[C@@H]3CN[C@H](C(=O)N(C)C)C3)[C@H](C)[C@H]12 [Meropenem] | 0.08 |
| COc1ccc(C[C@@H]2c3cc(OC)c(OC)cc3CC[N@+]2(C)CCC(=O)OCCCCCOC(=O)CC[N@@+]2(C)CCc3cc(OC)c(OC)cc3[C@H]2Cc2ccc(OC)c(OC)c2)cc1OC [Cisatracurium] | 0.38 |
| CN1CCN(CCCN2c3ccccc3Sc3ccc(C(F)(F)F)cc32)CC1 [trifluoperazine] | 0.99 |
| CC(C)(C)NC(=O)[C@H]1CC[C@H]2[C@@H]3CC=C4C=C(C(=O)O)CC[C@]4(C)[C@H]3CC[C@]12C [Epristeride] | 0.97 |
| CNCCC=C1c2ccccc2CCc2ccccc21 [Nortriptyline] | 0.91 |

Same assay, conditions: fraction bound to plasma protein; small molecule dataset, sheet 1-SM; ref Ingle et al.; cited from earlier work

| Compound | PPB (fb) |
| --- | --- |
| COc1ccc2cc(CCC(C)=O)ccc2c1 [nabumetone] | 0.99 |
| CC1(C)SC2C(NC(=O)C(O)c3ccccc3)C(=O)N2C1C(=O)O (centres unmarked) [penicillin37] | 0.53 |
| COc1ccc2ccccc2c1C(=O)NC1C(=O)N2C1SC(C)(C)C2C(=O)O (centres unmarked) [penicillin67] | 0.8 |
| NC(=O)c1ncn([C@@H]2O[C@H](CO)[C@@H](O)[C@H]2O)n1 [Ribavirin] | 0.02 |
| C/C(=C\C(=O)OCCCCCCCCC(=O)O)C[C@@H]1OC[C@H](C[C@@H]2O[C@H]2[C@@H](C)[C@H](C)O)[C@@H](O)[C@H]1O [mupirocin] | 0.96 |
| COC(C(=O)NC1C(=O)N2C1SC(C)(C)C2C(=O)O)c1cccc(F)c1 (centres unmarked) [penicillin45] | 0.65 |
| CCCN[C@H]1CCc2nc(N)sc2C1 [pramipexole] | 0.15 |
| CC1(C)SC2C(NC(=O)C(Cl)c3ccc(Cl)cc3)C(=O)N2C1C(=O)O (centres unmarked) [penicillin24] | 0.94 |
| Cc1cc2c(OCC(O)CNC(C)C)cccc2[nH]1 (centres unmarked) [mepindolol] | 0.5 |
| C=C(CC)C(=O)c1ccc(OCC(=O)O)c(Cl)c1Cl [ethacrynic acid] | 0.9 |
| CCOc1cnc2ccccc2c1C(=O)NC1C(=O)N2C1SC(C)(C)C2C(=O)O (centres unmarked) [penicillin78] | 0.7 |
| COC1=CC(=O)C[C@@H](C)[C@]12Oc1c(Cl)c(OC)cc(OC)c1C2=O [griseofulvin] | 0.8 |
| O=C(O)c1cccnc1 [niacin] | 0.22 |
| CN[C@@H]1[C@H](O)[C@H](NC)[C@H]2O[C@@]3(O)C(=O)C[C@@H](C)O[C@H]3O[C@@H]2[C@H]1O [spectinomycin] | 0.05 |
| Cc1nc2ccc(CN(C)c3ccc(C(=O)N[C@@H](CCC(=O)O)C(=O)O)s3)cc2c(=O)[nH]1 [raltitrexed] | 0.93 |
| CCCN(CC)C(CC)C(=O)Nc1c(C)cccc1C (centres unmarked) [etidocaine] | 0.94 |
| Cc1cccc(Nc2ccncc2S(=O)(=O)NC(=O)NC(C)C)c1 [Torasemide] | 0.99 |
| Cc1cccc(Nc2ccccc2C(=O)O)c1C [mefenamic acid] | 0.99 |
| O=C(O)c1ccc(O)c(O)c1 [protocatechuic acid] | 0.21 |
| CC(Oc1ccc(F)cc1)C(=O)NC1C(=O)N2C1SC(C)(C)C2C(=O)O (centres unmarked) [penicillin62] | 0.8 |

Same assay, conditions: plasma; cited from earlier work

| Compound | PPB (fb) |
| --- | --- |
| CN1C(=O)NC(=O)C(C)(C2=CCCCC2)C1=O (centres unmarked) [Hexobarbital] | 0.47 |
| manidipine | 0.99 |
| Oc1c(Cl)c(Cl)c(Cl)c(Cl)c1Cl [pentachlorophenol] | 0.99 |
| C#C[C@]1(O)CC[C@H]2[C@@H]3CCc4cc(OS(=O)(=O)O)ccc4[C@H]3CC[C@@]21C [Ethinylestradiol-3-Sulfate] | 0.99 |
| CC1(C)SC2C(NC(=O)Cc3cccs3)C(=O)N2C1C(=O)O (centres unmarked) [penicillin71] | 0.58 |
| CN1CC[C@]23CCCC[C@H]2[C@H]1Cc1ccc(O)cc13 [levorphanol] | 0.4 |
| N#CC(CCN1CCC(C(N)=O)(N2CCCCC2)CC1)(c1ccccc1)c1ccccc1 [Piritramide] | 0.94 |
| C=CCC1(C(C)CCC)C(=O)NC(=O)NC1=O (centres unmarked) [quinalbarbitone] | 0.5 |
| CCOC(=O)[C@@H]1C2CCC(C[C@@H]1OC(=O)c1ccccc1)N2C (some centres unmarked) [Cocaethylene] | 0.36 |
| CCC1(c2ccccc2)C(=O)NC(=O)NC1=O [Phenobarbital] | 0.43 |
| C[C@]12CC[C@H]3[C@@H](CCC4=CC(=O)CC[C@@]43C)[C@@H]1CC[C@@H]2O [Testosterone] | 0.6 |
| Fluorescein | 0.87 |
| Tolcapone | 0.99 |
| C=CC1(O)CN2CCC1CC2C(O)c1ccnc2ccc(OC)cc12 (centres unmarked) [3-Hydroxy Quinidine] | 0.6 |
| COC(=O)C(c1ccccc1)C1CCCCN1 (centres unmarked) [Methylphenidate] | 0.18 |
